# Tested on: NF-kB activity in K562 and Granta cells
# Experiment: NF-kB.Luc reporter assay, positive control
# Format: cell-based
# Details: TPA 5 ng/mL or 10 ng/mL (method), 5 h
# Method: We analyzed GR TR function using an NF-kB.Luc reporter assay with the irritating inflammatory agent phorbol 13-acetate 12-myristate (TPA) as an inducer of NF-kB signaling and positive control.
# Figure 4 Effects of synephrine derivatives on GR transrepression in Granta lymphoma and K562 leukemia cells. (A) K562 and Granta cells stably infected with the lentiviruses bearing the NF-kB luciferase reporter. Cells were incubated for 5 h with the solvent (control), TPA (5 ng/mL), 4S-C2 (10 µM), 8S-E3 (10 µM), 10S-E2 (1 µM), or 13S-G2 (1 µM). Luciferase activity was determined as described in the Materials and Methods section. (B) IL1-α and IL6 mRNA expression in K562 and Granta cells. […] The mean ± SD was calculated for three individual samples/condition (n = 3). […]
# Lentiviral stocks were generated using the lentiviral expression vector NF-kB. […] The infection efficiency exceeded 90% (tracked by GFP fluorescence).
# Cells (10^4 cells/well in a 24-well plate), stably expressing Firefly Luciferase under the NF-kB promoter, were treated for 5 h with TPA (12-O-tetradecanoylphorbol-13-acetate, Boston, MA, USA, 10 ng/mL), 4S-C2 (10 µM), 8S-E3 (10 µM), 10S-E2 (1 µM), 13S-G2 (1 µM), or the vehicle. Luciferase activity was measured as described using a commercial Luciferase Assay (“Promega”, Madison, WI, USA) and Luminometer TD 20/20 (“Turner Design Instruments”, San Jose, CA, USA). […]
compound,measurement,value
"CCCCCCCCCCCCCC(=O)O[C@@H]1[C@@H](C)[C@@]2(O)[C@@H](C=C(CO)C[C@]3(O)C(=O)C(C)=C[C@@H]23)[C@@H]2C(C)(C)[C@]12OC(C)=O [TPA, 12-O-tetradecanoylphorbol-13-acetate]",NF-kB activation,5-9 fold

# — PMC12691742, “Anti-Cancer Outcome of Glucocorticoid Receptor Transrepression by Synephrine Derivatives in Hematological Malignancies” (International Journal of Molecular Sciences, 2025)
